Patent US20260027104A1, “NOVEL NAPHTHYL AND ISOQUINOLINE SULFONAMIDE DERIVATIVES” (Hoffmann-La Roche Inc., priority 2022, published 2026)

Molecular target: human GPR17 short isoform (Homo sapiens, UniProt Q13304)
Assay: hGPR17 cAMP assay (GPR17 cAMP Assay Protocol, antagonist mode)
Assay type: cell-based
Settings: CHO-K1 cells stably expressing untagged human GPR17 short isoform; EC80 of agonist MDL29,951; forskolin 15 μM; 30 min, room temperature; TR-FRET cAMP readout
Protocol: GPR17 cAMP Assay Protocol:
CHO-K1 cells stably expressing vector containing untagged human GPR17 short isoform (Roche) were cultured at 37° C./5% CO2 in DMEM (Dulbecco's Modified Eagle Medium):F-12 (1:1) supplemented with 10% foetal bovine serum and 400 μg/ml Geneticin.
Changes in intracellular cyclic adenosine monophosphate (cAMP) levels were quantified using the Nano-TRF Detection Assay kit (Roche Diagnostics, Cat. No. 05214386001). This assay allows for direct cAMP quantification in a homogeneous solution. cAMP is detected based on time-resolved fluorescence energy transfer (TR-FRET) and competitive binding of ruthenylated cAMP and endogenous cAMP to an anti-cAMP monoclonal antibody labeled with AlexaFluor-700. The Ruthenium complex serves as the FRET donor and transfers energy to AlexaFluor-700. The FRET signal is inversely proportional to the cAMP concentration.
CHO-GPR17S cells were detached with Accutase and resuspended in assay buffer consisting of Hank's Balanced Salt Solution (HBSS), 10 mM HEPES (4-(2-hydroxyethyl) piperazine-1-ethanesulfonic acid solution) and 0.1% bovine serum albumin (pH 7.4). The cells were seeded in black 384-well plates (Corning) at a density of 10′000 cells/20 μl assay buffer until the addition of compounds.
Test antagonist compounds were serially diluted in dimethyl sulfoxide (DMSO) and spotted in 384-well plates. The compounds were then diluted in BSS buffer supplemented with an EC80 concentration of MDL29,951 (3-(2-Carboxy-4,6-dichloroindol-3-yl)propionic acid) (GPR17 agonist) plus 3-Isobutyl-1-methylxanthine (IBMX) (0.5 mM final concentration) and added to the cells at room temperature. Forskolin (15 μM final concentration) was added 5 minutes after the test compounds and the cells were incubated at room temperature for 30 minutes. The assay was stopped by adding cAMP detection mix (containing detergents for cell lysis) for 90 minutes at room temperature.
Cellular cAMP was measured using a Paradigm reader (Molecular Devices). The raw data was used to calculate the FRET signal based on the assay's P-factor as per cAMP kit instructions. The data was normalized to the maximal activity of a reference antagonist and dose response curves were fitted to the percent activity of the test compounds using a sigmoidal dose response model (Genedata Screener).
Results in the hGPR17 cAMP assay are provided for compounds of formula I in Table 1

Sequence of human GPR17 short isoform (Q13304 29-367): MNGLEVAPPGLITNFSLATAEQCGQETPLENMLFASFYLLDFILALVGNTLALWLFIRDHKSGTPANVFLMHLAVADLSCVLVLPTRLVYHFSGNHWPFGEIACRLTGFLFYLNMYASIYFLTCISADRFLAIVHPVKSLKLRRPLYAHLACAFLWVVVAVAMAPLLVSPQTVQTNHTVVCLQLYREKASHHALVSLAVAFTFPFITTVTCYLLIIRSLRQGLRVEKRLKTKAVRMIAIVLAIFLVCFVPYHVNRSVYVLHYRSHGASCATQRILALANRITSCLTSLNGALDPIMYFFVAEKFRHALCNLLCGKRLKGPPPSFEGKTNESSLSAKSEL

Row | IC50 [nM] | Compound
1 | 11 | COc1nc(OCC(F)F)c(F)cc1NS(=O)(=O)c1cncc2cc(Cl)ccc12 [Example 15, 7-chloro-N-[6-(2,2-difluoroethoxy)-5-fluoro-2-methoxy-3-pyridyl]isoquinoline-4-sulfonamide]
2 | 933 | Cc1ccc(S(=O)(=O)Nc2cc(F)c(CC#N)cc2F)c2cccnc12 [Example 47, N-[4-(cyanomethyl)-2,5-difluoro-phenyl]-8-methyl-quinoline-5-sulfonamide]
3 | 85 | COc1nc(OCC(F)F)c(F)cc1NS(=O)(=O)c1cccc2ccccc12 [Example 2, N-[6-(2,2-difluoroethoxy)-5-fluoro-2-methoxy-3-pyridyl]naphthalene-1-sulfonamide]
4 | 13 | COc1nc(OCC(F)F)c(F)cc1NS(=O)(=O)c1cccc2c(N(C)C)cccc12 [Example 40, N-[6-(2,2-difluoroethoxy)-5-fluoro-2-methoxy-3-pyridyl]-5-(dimethylamino)naphthalene-1-sulfonamide]
5 | 5 | COc1nc(OCC(F)F)c(F)cc1NS(=O)(=O)c1c[nH]c(=O)c2cc(Cl)ccc12 [Example 26]
6 | 495 | COc1nc(NS(=O)(=O)c2cccc3nc(Cl)ccc23)c(F)cc1OCC(F)F [Example 9, 2-chloro-N-[5-(2,2-difluoroethoxy)-3-fluoro-6-methoxy-2-pyridyl]quinoline-5-sulfonamide]
7 | 278 | COc1nc(NS(=O)(=O)c2c[nH]c(=O)c3cc(Cl)ccc23)nc(OC)c1CC(F)F [Example 24, 7-chloro-N-[5-(2,2-difluoroethyl)-4,6-dimethoxy-pyrimidin-2-yl]-1-keto-2H-isoquinoline-4-sulfonamide]
8 | 371 | COc1nc(OCC(F)F)c(F)cc1NS(=O)(=O)c1cn(C)c(=O)c2cc(Cl)ccc12 [Example 36, 7-chloro-N-[6-(2,2-difluoroethoxy)-5-fluoro-2-methoxy-3-pyridyl]-1-keto-2-methyl-isoquinoline-4-sulfonamide]
9 | 61 | COc1nc(OCC(F)F)c(F)cc1NS(=O)(=O)c1cnc(N(C)C)c2cc(Cl)ccc12 [Example 41, 7-chloro-N-[6-(2,2-difluoroethoxy)-5-fluoro-2-methoxy-3-pyridyl]-1-(dimethylamino)isoquinoline-4-sulfonamide]
10 | 260 | N#CCc1cc(F)c(NS(=O)(=O)c2cncc3cc(Cl)ccc23)cc1F [Example 12, 7-chloro-N-[4-(cyanomethyl)-2,5-difluoro-phenyl]isoquinoline-4-sulfonamide]
11 | 49 | COc1nc(OC(F)F)c(F)cc1NS(=O)(=O)c1cccc2nc(Cl)ccc12 [Example 6, 2-chloro-N-[6-(difluoromethoxy)-5-fluoro-2-methoxy-3-pyridyl]quinoline-5-sulfonamide]
12 | 217 | N#CCc1cc(F)c(NS(=O)(=O)c2cccc3nc(Cl)ccc23)cc1F [Example 3, 2-chloro-N-[4-(cyanomethyl)-2,5-difluoro-phenyl]quinoline-5-sulfonamide]
13 | 45 | COc1nc(C2CC2)c(F)cc1NS(=O)(=O)c1cccc2nc(Cl)ccc12 [Example 4, 2-chloro-N-(6-cyclopropyl-5-fluoro-2-methoxy-3-pyridyl)quinoline-5-sulfonamide]
14 | 214 | COc1nc(OCC(F)F)c(F)cc1NS(=O)(=O)c1cccc2nc(C(F)F)ccc12 [Example 35, N-[6-(2,2-difluoroethoxy)-5-fluoro-2-methoxy-3-pyridyl]-2-(difluoromethyl)quinoline-5-sulfonamide]
15 | 423 | CN(C)c1ncc(S(=O)(=O)Nc2cc(F)c(CC#N)cc2F)c2ccc(Cl)cc12 [Example 42, 7-chloro-N-[4-(cyanomethyl)-2,5-difluoro-phenyl]-1-(dimethylamino)isoquinoline-4-sulfonamide]
16 | 415 | COc1nc(NS(=O)(=O)c2cncc3cc(Cl)ccc23)c(F)cc1OCC(F)F [Example 14, 7-chloro-N-[5-(2,2-difluoroethoxy)-3-fluoro-6-methoxy-2-pyridyl]isoquinoline-4-sulfonamide]
17 | 327 | N#CCc1cc(F)c(NS(=O)(=O)c2cnc(O)c3c(Cl)cccc23)cc1F [Example 20, 8-chloro-N-[4-(cyanomethyl)-2,5-difluoro-phenyl]-1-hydroxy-isoquinoline-4-sulfonamide]
18 | 111 | O=S(=O)(Nc1cc(F)c(OC(F)F)nc1OC(F)F)c1cccc2nc(Cl)ccc12 [Example 11, N-[2,6-bis(difluoromethoxy)-5-fluoro-3-pyridyl]-2-chloro-quinoline-5-sulfonamide]
19 | 92 | COc1nc(OC(F)F)c(F)cc1NS(=O)(=O)c1cncc2cc(Cl)ccc12 [Example 13, 7-chloro-N-[6-(difluoromethoxy)-5-fluoro-2-methoxy-3-pyridyl]isoquinoline-4-sulfonamide]
20 | 19 | COc1nc(OC(F)F)c(F)cc1NS(=O)(=O)c1c[nH]c(=O)c2cc(Cl)ccc12 [Example 23, 7-chloro-N-[6-(difluoromethoxy)-5-fluoro-2-methoxy-3-pyridyl]-1-keto-2H-isoquinoline-4-sulfonamide]
21 | 9 | COc1nc(OCC(F)F)c(F)cc1NS(=O)(=O)c1cccc2nc(Br)ccc12 [Example 54, 2-bromo-N-[6-(2,2-difluoroethoxy)-5-fluoro-2-methoxy-3-pyridyl]quinoline-5-sulfonamide]
